Reference: US10676485B2, “Macrocyclic MCL-1 inhibitors and methods of use” (AbbVie Inc., priority 2017, dated 2020)
pKi: −log10 of the molar value. Like-named read-outs stand apart in the source and are kept apart here.

Experiments:
GST-MCL-1 = GST-MCL-1 (Homo sapiens (Human), UniProt Q07820); assay: TR-FRET MCL-1 binding assay (competition with probe F-Bak); settings: for Ki: read-out: MCL-1 Binding Ki (nM, 10% HS), in the presence of 10% HS; for pKi: without HS, read-out: MCL-1 Binding Ki
Method: For the assay, an acoustic dispenser was used to prepare dilution series from 10 mM test compounds in 100% DMSO and directly transfer 160 nL into low volume 384-well assay plates. 8 μL of a protein/probe/antibody mix was then added to each well resulting in final concentrations listed below: Test compound: 11 three-fold dilutions beginning at 25 μM
The samples were then mixed on a shaker for 1 minute and incubated for an additional 2 hours at room temperature. For each assay plate, a probe/antibody and protein/antibody/probe mixture were included as a negative and a positive control, respectively. Fluorescence was measured on the Envision (Perkin Elmer) using a 340/35 nm excitation filter and 520/525 (F-Bak) and 495/510 nm (Tb-labeled anti-his antibody) emission filters. […] The TR-FRET assay can be performed in the presence of varying concentrations of human serum (HS) or fetal bovine serum (FBS). Compounds were tested both without HS and in the presence of 10% HS.

[1] = test system: NCI-H929 human multiple myeloma tumor cell line; assay: NCI-H929 cell viability assay (CellTiter-Glo); assay type: cell-based; settings: NCI-H929, read-out: H929 Viability IC50 (μM), 10% FBS, 24 hours of compound treatment
Method: In one exemplary set of conditions, NCI-H929 or AMO-1 (ATCC. Manassas, Va.) were plated 4.000 cells per well in 384-well tissue culture plates (Corning. Corning, N.Y.) in a total volume of 25 μL RPMI tissue culture medium supplemented with 10% fetal bovine serum (Sigma-Aldrich, St. Louis, Mo.) and treated with a 3-fold serial dilution of the compounds of interest with a Labcyte Echo from a final concentration of 10 μM to 0.0005 μM. Each concentration was tested in duplicate at least 3 independent times. A luminescent signal proportional to the number of viable cells following 24 hours of compound treatment was determined using the CellTiter-Glo® Luminescent Cell Viability Assay according to the manufacturer's recommendations (Promega Corp., Madison, Wis.). The plates were read in a Perkin Elmer Envision using a Luminescence protocol. To generate dose response curves the data is normalized to percent viability by setting the averages of the staurosporine (10 uM) and DMSO only control wells to 0% and (00)% viability respectively. The IC50 values for the compounds are generated by fitting the normalized data with Accelrys Assay Explorer 3.3 to a sigmoidal curve model using linear regression.

[2] = test system: AMO-1 human multiple myeloma tumor cell line; assay: AMO-1 cell viability assay (CellTiter-Glo); assay type: cell-based; settings: AMO1, read-out: AMO-1 Viability IC50 (μM), 10% FBS, 24 hours of compound treatment

Sequence of GST-MCL-1 (Q07820 whole entry): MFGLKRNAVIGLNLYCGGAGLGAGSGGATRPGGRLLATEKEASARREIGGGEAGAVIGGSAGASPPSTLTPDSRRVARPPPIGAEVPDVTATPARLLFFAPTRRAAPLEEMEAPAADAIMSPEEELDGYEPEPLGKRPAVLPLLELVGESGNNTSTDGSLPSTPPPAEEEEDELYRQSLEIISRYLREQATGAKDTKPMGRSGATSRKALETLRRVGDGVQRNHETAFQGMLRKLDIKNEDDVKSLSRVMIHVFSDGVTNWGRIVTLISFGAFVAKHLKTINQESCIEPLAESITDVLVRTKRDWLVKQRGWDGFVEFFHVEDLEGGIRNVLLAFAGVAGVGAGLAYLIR

Cc1c(Cl)c2c(Cl)c(C)c1-c1c(-c3ccc(F)cc3)sc3ncnc(c13)O[C@@H](C(=O)O)Cc1cc(ccc1OCc1ccnc(-c3ccc(OC[C@H]4COCCO4)cc3)n1)OC[C@@H](CN1CCN(C)CC1)O2 [Example 2, (7R,16R)-19,23-dichloro-10-{[2-(4-{[(2R)-1,4-dioxan-2-yl]methoxy}phenyl)pyrimidin-4-yl]methoxy}-1-(4-fluorophenyl)-20,22-dimethyl-16-[(4-methylpiperazin-1-yl)methyl]-7,8,15,16-tetrahydro-18,21-etheno-13,9-(metheno)-6,14,17-trioxa-2-thia-3,5-diazacyclononadeca[1,2,3-cd]indene-7-carboxylic acid]
Ki (GST-MCL-1): 1.04 nM
pKi (GST-MCL-1): 10.28
IC50 [1]: 0.0033 µM
IC50 [2]: 0.00019 µM

Cc1c2ccc(c1Cl)O[C@H](CN1CCN(C)CC1)COc1ccc(OCc3ccnc(C4COCCO4)n3)c(c1)C[C@H](C(=O)O)Oc1ncnc3sc(-c4ccc(F)cc4)c-2c13 (stereo partly drawn) [Example 4, (7R,16R,21S)-19-chloro-10-{[2-(1,4-dioxan-2-yl)pyrimidin-4-yl]methoxy}-1-(4-fluorophenyl)-20-methyl-16-[(4-methylpiperazin-1-yl)methyl]-7,8,15,16-tetrahydro-18,21-etheno-13,9-(metheno)-6,14,17-trioxa-2-thia-3,5-diazacyclononadeca[1,2,3-cd]indene-7-carboxylic acid]
Ki (GST-MCL-1): 0.32 nM
pKi (GST-MCL-1): 10.26
IC50 [1]: 0.00572 µM
IC50 [2]: 0.00273 µM

Cc1c(Cl)c2c(Cl)c(C)c1-c1c(-c3ccc(F)cc3)sc3ncnc(c13)O[C@@H](C(=O)O)Cc1cc(ccc1OCc1ccnc(-c3ccc(OC[C@H]4COCCO4)nc3)n1)OC[C@@H](CN1CCN(C)CC1)O2 [Example 5, (7R,16R)-19,23-dichloro-10-{[2-(6-{[(2R)-1,4-dioxan-2-yl]methoxy}pyridin-3-yl)pyrimidin-4-yl]methoxy}-1-(4-fluorophenyl)-20,22-dimethyl-16-[(4-methylpiperazin-1-yl)methyl]-7,8,15,16-tetrahydro-18,21-etheno-13,9-(metheno)-6,14,17-trioxa-2-thia-3,5-diazacyclononadeca[1,2,3-cd]indene-7-carboxylic acid]
Ki (GST-MCL-1): 0.71 nM
pKi (GST-MCL-1): 10.32
IC50 [1]: 0.00037 µM
IC50 [2]: 0.000178 µM

Cc1c(Cl)c2c(Cl)c(C)c1-c1c(-c3ccc(F)cc3)sc3ncnc(c13)O[C@@H](C(=O)O)Cc1cc(ccc1OCc1ccnc(-c3ccc(OC[C@@H]4COCCO4)nc3)n1)OC[C@@H](CN1CCN(C)CC1)O2 [Example 6, (7R,16R)-19,23-dichloro-10-{[2-(6-{[(2S)-1,4-dioxan-2-yl]methoxy}pyridin-3-yl)pyrimidin-4-yl]methoxy}-1-(4-fluorophenyl)-20,22-dimethyl-16-[(4-methylpiperazin-1-yl)methyl]-7,8,15,16-tetrahydro-18,21-etheno-13,9-(metheno)-6,14,17-trioxa-2-thia-3,5-diazacyclononadeca[1,2,3-cd]indene-7-carboxylic acid]
Ki (GST-MCL-1): 6.09 nM
pKi (GST-MCL-1): 9.03
IC50 [1]: 0.000359 µM
IC50 [2]: 0.000135 µM

Cc1c(Cl)c2c(Cl)c(C)c1-c1c(-c3ccc(F)cc3)sc3ncnc(c13)O[C@@H](C(=O)O)Cc1cc(ccc1OCc1ccnc([C@H]3CC[C@H](OC[C@H]4COCCO4)CC3)n1)OC[C@@H](CN1CCN(C)CC1)O2 [Example 9, (7R,16R)-19,23-dichloro-10-({2-[(1R,4r)-4-{[(2R)-1,4-dioxan-2-yl]methoxy}cyclohexyl]pyrimidin-4-yl}methoxy)-1-(4-fluorophenyl)-20,22-dimethyl-16-[(4-methylpiperazin-1-yl)methyl]-7,8,15,16-tetrahydro-18,21-etheno-13,9-(metheno)-6,14,17-trioxa-2-thia-3,5-diazacyclononadeca[1,2,3-cd]indene-7-carboxylic acid]
Ki (GST-MCL-1): 0.1 nM
pKi (GST-MCL-1): 11.30
IC50 [1]: 0.000245 µM
IC50 [2]: 0.000165 µM

Cc1c(Cl)c2c(Cl)c(C)c1-c1c(-c3ccc(F)cc3)sc3ncnc(c13)O[C@@H](C(=O)O)Cc1cc(ccc1OCc1ccnc(N3CCC(OC[C@H]4COCCO4)CC3)n1)OC[C@@H](CN1CCN(C)CC1)O2 [Example 10, (7R,16R)-19,23-dichloro-10-{[2-(4-{[(2R)-1,4-dioxan-2-yl]methoxy}piperidin-1-yl)pyrimidin-4-yl]methoxy}-1-(4-fluorophenyl)-20,22-dimethyl-16-[(4-methylpiperazin-1-yl)methyl]-7,8,15,16-tetrahydro-18,21-etheno-13,9-(metheno)-6,14,17-trioxa-2-thia-3,5-diazacyclononadeca[1,2,3-cd]indene-7-carboxylic acid]
Ki (GST-MCL-1): 3.07 nM
pKi (GST-MCL-1): 9.46
IC50 [1]: 0.00217 µM
IC50 [2]: 0.000502 µM

Cc1c(Cl)c2c(Cl)c(C)c1-c1c(-c3ccc(F)cc3)sc3ncnc(c13)O[C@@H](C(=O)O)Cc1cc(ccc1OCc1ccnc(C3(COC[C@H]4COCCO4)CCC3)n1)OC[C@@H](CN1CCN(C)CC1)O2 [Example 11, (7R,16R)-19,23-dichloro-10-({2-[1-({[(2S)-1,4-dioxan-2-yl]methoxy}methyl)cyclobutyl]pyrimidin-4-yl}methoxy)-1-(4-fluorophenyl)-20,22-dimethyl-16-[(4-methylpiperazin-1-yl)methyl]-7,8,15,16-tetrahydro-18,21-etheno-13,9-(metheno)-6,14,17-trioxa-2-thia-3,5-diazacyclononadeca[1,2,3-cd]indene-7-carboxylic acid]
IC50 [1]: 0.000545 µM
IC50 [2]: 0.000188 µM

Cc1c(Cl)c2c(Cl)c(C)c1-c1c(-c3ccc(F)cc3)sc3ncnc(c13)O[C@@H](C(=O)O)Cc1cc(ccc1OCc1ccnc(N3CC(COC[C@H]4COCCO4)C3)n1)OC[C@@H](CN1CCN(C)CC1)O2 [Example 12, (7R,16R)-19,23-dichloro-10-({2-[3-({[(2S)-1,4-dioxan-2-yl]methoxy}methyl)azetidin-1-yl]pyrimidin-4-yl}methoxy)-1-(4-fluorophenyl)-20,22-dimethyl-16-[(4-methylpiperazin-1-yl)methyl]-7,8,15,16-tetrahydro-18,21-etheno-9,13-(metheno)-6,14,17-trioxa-2-thia-3,5-diazacyclononadeca[1,2,3-cd]indene-7-carboxylic acid]
Ki (GST-MCL-1): 0.61 nM
pKi (GST-MCL-1): 10.12
IC50 [1]: 0.00208 µM
IC50 [2]: 0.00104 µM

Cc1c(Cl)c2c(Cl)c(C)c1-c1c(-c3ccc(F)cc3)sc3ncnc(c13)O[C@@H](C(=O)O)Cc1cc(ccc1OCc1ccnc(N3CC(COC[C@@H]4COCCO4)C3)n1)OC[C@@H](CN1CCN(C)CC1)O2 [Example 13, (7R,16R)-19,23-dichloro-10-({2-[3-({[(2R)-1,4-dioxan-2-yl]methoxy}methyl)azetidin-1-yl]pyrimidin-4-yl}methoxy)-1-(4-fluorophenyl)-20,22-dimethyl-16-[(4-methylpiperazin-1-yl)methyl]-7,8,15,16-tetrahydro-18,21-etheno-9,13-(metheno)-6,14,17-trioxa-2-thia-3,5-diazacyclononadeca[1,2,3-cd]indene-7-carboxylic acid]
Ki (GST-MCL-1): 1.07 nM
pKi (GST-MCL-1): 10.10
IC50 [1]: 0.00311 µM
IC50 [2]: 0.00126 µM
